Read-outs that look alike come from different tables or passages of the source.
Tests used:
[1] = target: T1, FAK Tyr-397 phosphorylation (Mus musculus, UniProt P34152); assay: Anti-phospho-specific immunoblotting of FAK pY397 in 4T1 cells; assay type: cell-based, murine
T1 construct: endogenous in cells; host or cells: 4T1 murine mammary carcinoma cells
From the text: Immunoblotting: Protein extracts of cells were made using lysis buffer containing 1% Triton X-100, 1% sodium deoxycholate, and 0.1% SDS and were separated by 4-12% SDS-PAGE (sodium dodecyl sulfate polyacrylamide gel electrophoresis) and sequential immunoblotting performed as described in Mitra S K, Lim S T, Chi A, Schlaepfer D D. Intrinsic focal adhesion kinase activity controls orthotopic breast carcinoma metastasis via the regulation of urokinase plasminogen activator expression in a syngeneic tumor model. Oncogene 2006; 25:4429-40. Relative expression levels and phospho-specific antibody reactivity were measured by densitometry analyses of blots using Image J (version 1.42q). Inhibition of FAK and p130Cas tyrosine phosphorylation was quantified by calculating the ratio of pY397 FAK protein to total FAK. Similar analyses were performed for p130Cas using pY410 p130Cas and total p130Cas blot data.

[2] = Pharmacokinetic (PK) evaluation in mice; assay type: in vivo, Balb/c mice
Description: Blood samples were collected via terminal heart puncture at 0.5, 1, 2, 4, 8, 12, 24 and 48 h for p.o. administration and 0.083, 0.25, 0.5, 1, 2, 4, 8, 12, 24 and 48 h for i.p. and i.v. administration. 3 mice per time point were used. For ad libitum administration, blood samples were collected after 7 days using five mice per group. Samples were collected in tubes containing 0.05 ml 0.5 M EDTA, centrifuged at 900×g for 15 min at room temperature, and the plasma collected. PND-1186 content was determined by high-performance liquid chromatography (HPLC) and mass spectroscopy analyses (see Supplemental Methods).

[3] = system: MDA-MB-231 cells; assay: Experimental metastasis assay (tail vein injection); assay type: in vivo, nude mice; settings: 150 mg/kg p.o. pre-administered; 1 and 6 h
Description: To determine experimental metastasis burden, lungs were removed 1 and 6 h post cell injection, rinsed in PBS, and dorsal plus ventral fluorescent images acquired using OV100 imaging. A common threshold for mCherry fluorescence was set for all images and the total fluorescent lung area was calculated using Image J.

[4] = target: T2, c-Src (pY416 Src) (Mus musculus, UniProt P05480); assay: Phospho-specific immunoblotting of Src pY416 in 4T1 cells; assay type: cell-based, murine
T2 construct: endogenous in cells; host or cells: 4T1 murine mammary carcinoma cells

[5] = system: 4T1 tumors; assay: Orthotopic 4T1 breast carcinoma model (breast fat pad)
Description: Immunohistochemistry: For the detection of apoptosis, sections (7 μm) were analyzed using a terminal deoxynucleotidyl transferase dUTP nick end labeling (TUNEL) kit (Roche). For CD45 staining, sections (7 μm) were fixed in 4% paraformaldehyde, rinsed in PBS, and blocked with a solution of PBS containing 5% BSA, 1% goat serum and 0.1% Triton X. FITC-conjugated anti-CD45 antibodies (Invitrogen) at 1 μg/ml in 5% BSA and PBS were incubated for 2 hours. FITC-conjugated IgG2b isotype antibodies (Invitrogen) at the same concentration were used as a negative control. […] Images were sequentially captured at 40× (UPLFL objective, 1.3 NA; Olympus) using a monochrome charge-coupled camera (ORCA ER; Hamamatsu), an inverted microscope (IX51; Olympus), and Slidebook software (v5.0, Intelligent Imaging). Images were pseudo-colored, overlaid, and merged using Photoshop CS3 (Adobe). Fluorescence quantitation was performed using Image J (v1.43).
Orthotopic breast cancer models: One million 4T1 or MDA-MB-231 cells in 10 μl PBS were injected into the T4 mammary fat pad of 8-10 week old mice using a Hamilton syringe. […] Tumors were measured every 3-4 days with digital vernier calipers and tumor volume (mm^3) was calculated using the formula: V=axb^2/2 (a=length, mm; b=width, m) Body weight was measured weekly to assess toxicity. Lungs, spleen, and primary tumors were surgically removed and weighed.
For 4T1 tumor metastasis analyses, lungs were rinsed in PBS, dorsal and ventral fluorescent images acquired using the OV100 Small Animal Imaging System (Olympus). For all images, a common threshold for mCherry fluorescence was set and lung metastatic burden was calculated by determining the average integrated pixel density for micro-tumors present in each lung using Image J software. Metastatic tumor burden (number of metastatic lesion or mean pixel volume) was determined and groups (Negligible, Moderate, and High) were separated based upon numbers distribution. After imaging, lungs were fixed in Bouin's solution (Sigma), paraffin embedded, sectioned, and stained with hematoxylin and eosin (H&E) for histological evaluation. Images were acquired using a differential interference contrast-equipped Olympus IX81 inverted microscope and an Olympus DP71 digital color camera using Slidebook (v5.0) software. […] Lungs were resected, embedded in OCT, and frozen in liquid nitrogen.

[6] = target: T3, TrkA (tropomyosin-related kinase A) (Homo sapiens, UniProt P04629); assay: Millipore KinaseProfiler selectivity screen; assay type: biochemical
T3 construct: purchased Millipore (KinaseProfiler service)
Description: (§1) Baculovirus FAK catalytic domain and in vitro kinase assays: The FAK catalytic domain region (411-686) was generated by polymerase chain reaction using the primers 5′-[…]-3′ 5′-[…]-3′, cloned into pGEX4T as a fusion with GST, and moved into the pAcG2T baculovirus expression vector (Pharmingen, Baculogold). Virus clones were identified by plaque assays and amplified. For protein expression, SF9 cells were transduced at a multiplicity of infection of 2-5 pfu/cell and cultured at 27° C. for 48 h. Glutathione agarose affinity chromatography were used to purify GST-FAK (411-686) followed by size fractionation using hiload 16/60 Superdex chromatography (GE Healthcare). Protein was concentrated and stored frozen in 50 mM Tris pH 8.0, 150 mM NaCl, 1 mM Na orthovanadate, 0.5 mM EDTA, 0.5 mM EGTA, 0.1% β-mercaptoethanol, and 20% glycerol. Purity was estimated at >90% by SDS-PAGE. GST-FAK in vitro kinase activity was measured and compared to His-tagged FAK 411-686 (Millipore) using the K-LISA screening kit (Calbiochem) and poly(Glu:Tyr) (4:1) copolymer (P0275, Sigma) as a substrate immobilized on microtiter plates. […] Serial diluted compounds at ½-Log concentrations (starting at 1 μM) were tested in triplicate. Substrate phosphorylation was measured using horseradish peroxidase-conjugated anti-pTyr antibodies (PY20, Santa Cruz Biotechnology) with spetrophotometic color quantitation. IC50 values were determined using the Hill-Slope Model. Kinase selectivity profiling was performed by using the KinaseProfiler service (Millipore).

[7] = target: T4, Aurora-A (Homo sapiens, UniProt O14965); assay: Millipore KinaseProfiler selectivity screen; assay type: biochemical; settings: read-out: kinase inhibition
T4 construct: purchased Millipore (KinaseProfiler service)
Description: as §1

[8] = target: T5, insulin receptor (IR) (Homo sapiens, UniProt P06213); assay: Millipore KinaseProfiler selectivity screen; assay type: biochemical; settings: read-out: kinase inhibition
T5 construct: purchased Millipore (KinaseProfiler service)
Description: as §1

[9] = target: T6, Flt3 (FMS-like tyrosine kinase 3) (Homo sapiens, UniProt P36888); assay: Millipore KinaseProfiler selectivity screen; assay type: biochemical
T6 construct: purchased Millipore (KinaseProfiler service)
Description: as §1

[10] = target: T7, ACK1 (activated Cdc42-associated tyrosine kinase 1) (Homo sapiens, UniProt Q07912); assay: Millipore KinaseProfiler selectivity screen; assay type: biochemical
T7 construct: purchased Millipore (KinaseProfiler service)
Description: as §1

[11] = 0.5 mg/ml ad libitum in drinking water
[12] = 150 mg/kg p.o. b.i.d. vs vehicle
[13] = 150 mg/kg p.o., b.i.d., 15 days
[14] = oral, 4T1 and MDA-MB-231 orthotopic models

T1 sequence (P34152 whole entry): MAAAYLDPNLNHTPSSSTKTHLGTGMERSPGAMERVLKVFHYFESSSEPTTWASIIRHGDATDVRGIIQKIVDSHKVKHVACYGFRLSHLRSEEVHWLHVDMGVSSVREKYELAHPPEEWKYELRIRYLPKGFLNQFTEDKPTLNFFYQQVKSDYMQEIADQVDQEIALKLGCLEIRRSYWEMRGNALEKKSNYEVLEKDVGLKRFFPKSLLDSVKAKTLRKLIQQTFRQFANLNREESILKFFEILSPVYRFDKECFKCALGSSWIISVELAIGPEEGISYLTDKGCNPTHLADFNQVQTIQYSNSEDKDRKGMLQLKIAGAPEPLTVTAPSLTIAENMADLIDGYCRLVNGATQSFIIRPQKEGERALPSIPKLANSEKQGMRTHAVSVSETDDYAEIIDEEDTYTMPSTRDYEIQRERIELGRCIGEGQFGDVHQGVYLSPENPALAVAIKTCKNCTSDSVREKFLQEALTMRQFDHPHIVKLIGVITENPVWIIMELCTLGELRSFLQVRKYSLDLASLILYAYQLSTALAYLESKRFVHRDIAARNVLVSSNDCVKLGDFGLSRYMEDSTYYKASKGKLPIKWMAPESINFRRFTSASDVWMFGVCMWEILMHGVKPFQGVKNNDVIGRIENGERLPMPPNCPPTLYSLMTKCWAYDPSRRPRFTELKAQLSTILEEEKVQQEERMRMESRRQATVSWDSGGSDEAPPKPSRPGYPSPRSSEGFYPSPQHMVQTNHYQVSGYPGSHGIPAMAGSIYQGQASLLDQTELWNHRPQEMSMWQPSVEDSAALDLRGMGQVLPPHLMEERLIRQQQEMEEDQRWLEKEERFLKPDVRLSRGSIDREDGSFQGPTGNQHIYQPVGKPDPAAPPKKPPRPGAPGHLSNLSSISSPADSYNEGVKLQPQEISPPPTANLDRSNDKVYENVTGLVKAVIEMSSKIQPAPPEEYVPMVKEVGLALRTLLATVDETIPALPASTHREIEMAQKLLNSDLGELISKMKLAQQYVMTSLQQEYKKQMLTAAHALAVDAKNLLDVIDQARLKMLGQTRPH
T6 sequence (P36888 27-993): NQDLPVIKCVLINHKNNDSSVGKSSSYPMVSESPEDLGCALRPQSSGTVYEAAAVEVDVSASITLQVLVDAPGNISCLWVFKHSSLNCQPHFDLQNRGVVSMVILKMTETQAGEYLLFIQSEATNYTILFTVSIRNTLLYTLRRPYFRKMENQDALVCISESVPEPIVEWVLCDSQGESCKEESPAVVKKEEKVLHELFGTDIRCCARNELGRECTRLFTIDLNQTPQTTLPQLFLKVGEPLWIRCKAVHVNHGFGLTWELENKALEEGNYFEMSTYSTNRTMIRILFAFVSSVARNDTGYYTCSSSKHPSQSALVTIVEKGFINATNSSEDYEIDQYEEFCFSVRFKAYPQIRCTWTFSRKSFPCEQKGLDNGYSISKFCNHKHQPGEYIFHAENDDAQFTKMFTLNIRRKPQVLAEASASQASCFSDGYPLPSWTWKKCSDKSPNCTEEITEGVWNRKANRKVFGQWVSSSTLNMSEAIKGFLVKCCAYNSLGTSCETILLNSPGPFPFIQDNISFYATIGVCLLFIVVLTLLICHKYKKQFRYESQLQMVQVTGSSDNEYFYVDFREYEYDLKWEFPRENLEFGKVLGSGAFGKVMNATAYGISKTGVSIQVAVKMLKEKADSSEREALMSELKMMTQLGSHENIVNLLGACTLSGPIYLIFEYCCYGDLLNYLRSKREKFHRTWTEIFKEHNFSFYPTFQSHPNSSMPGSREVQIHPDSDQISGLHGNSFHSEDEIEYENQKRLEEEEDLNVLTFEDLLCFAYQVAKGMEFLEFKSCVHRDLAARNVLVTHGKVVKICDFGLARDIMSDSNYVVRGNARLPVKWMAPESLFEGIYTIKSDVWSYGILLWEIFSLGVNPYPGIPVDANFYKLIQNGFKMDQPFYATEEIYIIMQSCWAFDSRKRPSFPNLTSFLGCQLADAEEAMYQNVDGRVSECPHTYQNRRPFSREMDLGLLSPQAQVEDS
T4 sequence (O14965 whole entry): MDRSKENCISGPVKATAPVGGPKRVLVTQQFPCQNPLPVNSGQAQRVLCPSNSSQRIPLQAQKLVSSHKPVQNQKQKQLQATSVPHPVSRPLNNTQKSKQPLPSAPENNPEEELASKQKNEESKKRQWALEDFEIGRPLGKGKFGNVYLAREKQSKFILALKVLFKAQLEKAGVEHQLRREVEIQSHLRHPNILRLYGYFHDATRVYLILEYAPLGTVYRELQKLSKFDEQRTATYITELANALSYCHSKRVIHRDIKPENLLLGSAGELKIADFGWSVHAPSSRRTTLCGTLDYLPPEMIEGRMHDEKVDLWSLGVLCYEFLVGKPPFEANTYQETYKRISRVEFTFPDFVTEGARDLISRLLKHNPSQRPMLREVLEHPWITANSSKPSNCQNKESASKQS
T7 sequence (Q07912 whole entry): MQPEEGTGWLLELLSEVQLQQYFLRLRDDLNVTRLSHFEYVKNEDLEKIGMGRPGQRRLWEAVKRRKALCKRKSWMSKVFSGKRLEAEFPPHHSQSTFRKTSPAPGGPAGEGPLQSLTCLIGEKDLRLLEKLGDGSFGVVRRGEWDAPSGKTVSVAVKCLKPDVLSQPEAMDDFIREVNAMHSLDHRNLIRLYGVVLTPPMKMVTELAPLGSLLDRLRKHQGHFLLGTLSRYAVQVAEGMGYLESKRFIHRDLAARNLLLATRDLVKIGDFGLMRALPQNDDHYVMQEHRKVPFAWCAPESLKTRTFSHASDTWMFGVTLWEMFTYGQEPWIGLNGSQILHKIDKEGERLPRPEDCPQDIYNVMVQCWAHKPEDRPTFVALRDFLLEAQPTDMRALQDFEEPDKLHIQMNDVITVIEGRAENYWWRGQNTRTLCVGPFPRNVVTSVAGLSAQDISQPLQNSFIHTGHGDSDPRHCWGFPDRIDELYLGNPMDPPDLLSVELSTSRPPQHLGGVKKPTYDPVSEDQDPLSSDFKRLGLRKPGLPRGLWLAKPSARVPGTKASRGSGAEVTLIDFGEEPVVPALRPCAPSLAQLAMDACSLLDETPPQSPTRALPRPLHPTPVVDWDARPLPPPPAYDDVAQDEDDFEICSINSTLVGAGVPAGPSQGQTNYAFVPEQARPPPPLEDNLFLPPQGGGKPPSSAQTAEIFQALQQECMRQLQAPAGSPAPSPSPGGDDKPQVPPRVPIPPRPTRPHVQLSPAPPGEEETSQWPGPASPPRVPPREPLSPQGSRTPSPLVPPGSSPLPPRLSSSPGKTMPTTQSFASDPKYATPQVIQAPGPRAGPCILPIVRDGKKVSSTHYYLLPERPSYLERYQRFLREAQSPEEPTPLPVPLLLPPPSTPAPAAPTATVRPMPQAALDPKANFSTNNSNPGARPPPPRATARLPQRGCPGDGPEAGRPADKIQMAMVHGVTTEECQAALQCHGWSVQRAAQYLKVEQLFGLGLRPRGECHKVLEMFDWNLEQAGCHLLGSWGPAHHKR
T3 sequence (P04629 33-796): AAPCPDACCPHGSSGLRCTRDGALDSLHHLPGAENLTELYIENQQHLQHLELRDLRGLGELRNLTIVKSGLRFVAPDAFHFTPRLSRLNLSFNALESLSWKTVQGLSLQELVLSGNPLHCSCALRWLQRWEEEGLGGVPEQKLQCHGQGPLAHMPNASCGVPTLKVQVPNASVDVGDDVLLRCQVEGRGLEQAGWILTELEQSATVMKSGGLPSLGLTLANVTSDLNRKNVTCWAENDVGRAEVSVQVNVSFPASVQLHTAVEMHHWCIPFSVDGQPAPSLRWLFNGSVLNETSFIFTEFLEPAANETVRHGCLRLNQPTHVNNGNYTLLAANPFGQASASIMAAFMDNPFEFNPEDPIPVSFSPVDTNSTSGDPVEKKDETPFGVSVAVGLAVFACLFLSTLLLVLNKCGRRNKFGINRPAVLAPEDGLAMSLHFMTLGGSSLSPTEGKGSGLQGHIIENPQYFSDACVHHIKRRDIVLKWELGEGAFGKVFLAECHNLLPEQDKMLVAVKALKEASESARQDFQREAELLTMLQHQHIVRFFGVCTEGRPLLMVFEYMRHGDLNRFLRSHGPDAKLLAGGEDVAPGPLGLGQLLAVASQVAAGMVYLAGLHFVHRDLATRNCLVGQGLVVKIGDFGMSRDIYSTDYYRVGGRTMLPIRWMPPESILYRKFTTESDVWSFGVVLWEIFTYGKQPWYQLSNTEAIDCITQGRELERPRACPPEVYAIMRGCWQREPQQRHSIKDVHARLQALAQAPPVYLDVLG

SMILES: CNC(=O)c1ccccc1Nc1cc(Nc2ccc(N3CCOCC3)cc2OC)ncc1C(F)(F)F [PND-1186]
- FAK pY397 phosphorylation in 4T1 spheroids ([1]; 0.1 μM, 3D spheroids): potently inhibited
- FAK pY397 phosphorylation, adherent and suspended cells ([1]; 0.1 μM, 24 h): sufficient to inhibit FAK pY397 phosphorylation
- maximal reduction of FAK pY397 phosphorylation ([1]; 4T1 cells, 0.1 to 1.0 μM, 1 h): ~80%
- CSS ([2]; 0.5 mg/ml ad libitum, mice): 1.16 µM
- AUC(0-inf) ([2]; 2 mg/kg i.v., mice): 6,960 ng · h/mL
- Cl ([2]; 2 mg/kg i.v., mice): 4.78 mL/min/kg
- Vd ([2]; 2 mg/kg i.v., mice): 0.714 L/kg
- t1/2 ([2]; 2 mg/kg i.v., mice): 1.72 h
- AUC(0-inf) ([2]; 30 mg/kg i.p., mice): 32,500 ng · h/mL
- Cmax ([2]; 30 mg/kg i.p., mice): 34.8 µM
- TMAX ([2]; 30 mg/kg i.p., mice): 0.25 h
- t1/2 ([2]; 30 mg/kg i.p., mice): 2.27 h
- AUC(0-inf) ([2]; 100 mg/kg i.p., mice): 147,000 ng · h/mL
- Cmax ([2]; 100 mg/kg i.p., mice): 117 µM
- TMAX ([2]; 100 mg/kg i.p., mice): 0.50 h
- t1/2 ([2]; 100 mg/kg i.p., mice): 2.65 h
- maximal plasma level ([2]; 150 mg/kg oral, by 4 h): ~14 µM
- sustained plasma level ([2]; 150 mg/kg oral, for 12 h): above 3 μM
- AUC(0-inf) ([2]; 150 mg/kg p.o., mice): 77,400 ng · h/mL
- Cmax ([2]; 150 mg/kg p.o., mice): 14 µM
- TMAX ([2]; 150 mg/kg p.o., mice): 4.00 h
- t1/2 ([2]; 150 mg/kg p.o., mice): 2.15 h
- AUC(0-inf) ([2]; Balb/c, mouse, plasma, oral, 0.5 mg/kg, 0.5 mg/ml ad libitum, mice, read-out: AUC(0-inf)): 13.1 ng·h/mL
- bioavailability (% F) ([2]; i.p. and p.o. dosing): 14.8 to 42.2%
- terminal half lives (t1/2) ([2]; i.p. and p.o. dosing): 2.15 to 2.65 h
- dose dependence of plasma concentrations, Cmax and AUC(0-inf) ([2]; mouse, in vivo): increased in a linear fashion as a function of dose
- accumulation of tumor cells in the lungs [3]: significantly inhibited the accumulation of tumor cells in the lungs
- Src pY416 and Src expression levels in spheroids ([4]; PND-1186-treated 3D spheroids): no change
- Src pY416 phosphorylation ([4]; adherent 4T1 cells, 1 h, PND-1186 to 1 μM): did not affect c-Src activity
- average concentration in plasma [5, 11]: 1.0 µM
- average concentration in tumors [5, 11]: 0.52 µg/g
- tumor growth and tumoral FAK-p130Cas phosphorylation [5, 11]: significantly decreased tumor growth and tumoral FAK-p130Cas phosphorylation
- decrease in CD45 tumor-associated staining ([5]; 150 mg/kg): 2.8 fold
- tumor vasculature (anti-CD31 staining) ([5]; 150 mg/kg p.o. b.i.d.): no major vascular differences
- increase of TUNEL staining in breast fat pad tumors [5, 12]: 2.8 fold
- tumor volume by Day 7 [5, 12]: significantly reduced tumor volume
- reduction of final tumor weight ([5]; 150 mg/kg p.o. b.i.d., 16 days): 3.1 fold
- total body weight ([5]; 150 mg/kg p.o. b.i.d., 16 days): without affects on total body weight
- orthotopic and syngeneic breast carcinoma tumor growth and spontaneous metastasis to lungs ([5]; 150 mg/kg p.o. bid): significantly inhibited
- lung metastases by H&E staining of lung sections [5, 13]: detectable 4T1 lung metastases in control but not PND-1186-treated mice
- mice with high lung metastatic burden [5, 13]: no mice with a high metastatic burden
- mice with negligible lung metastases [5, 13]: 7/12
- tumor histology ([5]; ad libitum PND-1186): necrotic regions at the tumor core, increased TUNEL staining, and decreased leukocyte infiltrate
- FAK pY397 and p130Cas pY410 phosphorylation in primary tumors ([5]; ad libitum oral): sufficient to inhibit both FAK pY397 and p130Cas pY410 phosphorylation
- mice with negligible to moderate lung metastatic burden ([5]; ad libitum oral): 13/15
- pY118 paxillin phosphorylation in tumors ([5]; ad libitum oral): inhibited pY118 paxillin phosphorylation
- pY416 Src, pY402 Pyk2, pS473 Akt, pT308 Akt phosphorylation in tumors ([5]; ad libitum oral): not pY416 Src nor pY402 Pyk2, pS473 Akt, or pT308 Akt phosphorylation
- spleen size ([5]; ad libitum oral): normal size
- inhibition of final tumor mass ([5]; ad libitum oral, Day 22): > 1.8 fold
- toxicity or weight loss ([5]; ad libitum oral, Day 22): without toxicity or weight loss
- tumor-associated inflammatory cell infiltration and splenomegaly ([5]; mice with syngeneic 4T1 tumors): significantly decreased tumor-associated inflammatory cell infiltration and splenomegaly
- tumor-associated splenomegaly ([5]; mouse, in vivo): reduced tumor-associated splenomegaly
- anti-tumor and anti-metastatic effects [5, 14]: significant anti-tumor and anti-metastatic effects
- tolerability of oral dosing [5, 14]: without animal morbidity, death or weight loss
- spleen appearance ([5]; tumor-bearing PND-1186-treated mice): healthy and indistinguishable from non-treated, non-tumor bearing mice
- inhibition at 1 µM [6]: > 50%
- inhibition at 1 µM [7]: > 50%
- inhibition at 1 µM [8]: > 50%
- kinase inhibition specificity ([9]; 0.1 μM PND-1186): displayed specificity for FAK as well as Flt3
- remaining kinase activity ([9]; 1 μM PND-1186): negligible activity
- inhibition at 1 µM [10]: > 50%

From patent US20120196858A1, “METHOD OF PROMOTING APOPTOSIS AND INHIBITING METASTASIS” (Poniard Pharmaceuticals ,Inc., priority 2009, published 2012)
